“And” between values parts separate entries of the source, which are not always exact repeats. Equal values may be shown once. “Also recorded” adds a separate entry of the source.
Tests used:
Format in all cases: physicochemical
[1] = Fluidity test: bulk density and tap density determination
Method: (2) Bulk Density and Tap Density Determination
The crystal form I is added to a measuring cylinder, and the weight and volume of the material added are calculated. A densitometer is used to tap and record the volume of the material after tapping.

[2] = Two-week solid-state stability determination (XRPD and HPLC); details: 2 weeks; for Purity after storage: HPLC, initial purity 99.72%; for Stability of crystalline shape: XRPD
From the text: […] Samples are taken after 2 weeks to test the stability of the samples by XRPD and HPLC.

[3] = Fluidity test: angle of repose measurement
Method: (1) Angle of Repose Measurement
An iron stand configured to measure the angle of repose is placed in a horizontal position, a funnel is fixed on the iron stand, and a plastic receiving container is placed directly under the funnel. The crystal form I is added to the funnel to make the material flow down slowly from the funnel to form a cone shape. The height of the bottom of the funnel and the top of the flowed-down material is maintained at a height of about 2-4 cm. The measurement is repeated 5 times to calculate the average value.

[4] = Moisture absorption determination according to the Pharmacopoeia
Method: In this embodiment, the moisture absorption of crystal form I is investigated according to the Pharmacopoeia, and the details are as follows: • (1) 2 dry glass weighing bottles with stoppers (outer diameter of 50 mm, height of 30 mm) are taken and placed in a desiccator where a saturated solution of ammonium chloride is placed in a lower part. The weighing bottles are placed with open lips, the lid of the desiccator is closed, and the desiccator is placed in a constant temperature room at 25° C. and left overnight. • (2) after left overnight, the weighing bottles are taken out and accurately weighted, results of which are m1 1 and m1 2 respectively. • (3) an appropriate amount of the API sample is taken and laid flat in a weighed weighing bottle (the thickness of the sample is about 1 mm), and accurately weighted, results of which are m2 1 and m2 2 respectively. • (4) the weighing bottles are placed with open lips and placed with the bottle caps in the desiccator with the saturated solution of ammonium chloride in the lower part, the lid of the desiccator is closed, and the desiccator is placed in a thermostat at 25° C. for 24 hours. • (5) after leaving for 24 hours, the weighing bottles are capped and accurately weighted, results of which are m3 1 and m3 2 respectively. • (6) the calculation formula for moisture absorption weight gain is as follows: Weight gain percentage=100%×(m3−m2)/(m2−m1)

SMILES: O=C1/C(=C/c2ccccc2C(F)(F)F)CCC/C1=C\c1ccccc1C(F)(F)F [crystal form I]
- Carr index ([1]; (tap density − bulk density)/tap density × 100): 21.60
- ρ (bulk density) ([1]; M 29.85 g, V 44.0 mL): 0.678 g/mL
- ρ-tapped (tap density) ([1]; M 29.85 g, V-tapped 34.5 mL): 0.865 g/mL
- fluidity (from Carr index) ([1]; judgement in words): good fluidity
- Purity after storage ([2]; 25° C./60% RH/60% RH): 99.70%
- Stability of crystalline shape ([2]; 25° C./60% RH/60% RH): YES
- Purity after storage ([2]; 25° C./92.5% RH): 99.72%
- Stability of crystalline shape ([2]; 25° C./92.5% RH): YES
- Purity after storage ([2]; 40° C./75% RH): 99.70%
- Stability of crystalline shape ([2]; 40° C./75% RH): YES
- Purity after storage ([2]; 60° C./75% RH): 99.68%
- Stability of crystalline shape ([2]; 60° C./75% RH): YES
- change of purity on storage ([2]; all storage conditions): does not change significantly
- stability of crystal form ([2]; all storage conditions): remains stable
- angle of repose, Average value ([3]; average of 5 repeated measurements): 41.80 °
- fluidity ([3]; judgement in words): good fluidity; also recorded: acceptable
- angle of repose ([3]; single measurements 1 to 5, funnel method): 41.30° and 40.86° and 42.93° and 41.87° and 42.02°
- Weight gain percentage, Average value ([4]; 25° C., saturated ammonium chloride solution desiccator, 24 hours, average of 2): 0.16%
- Weight gain percentage (moisture absorption) ([4]; 25° C., saturated ammonium chloride solution desiccator, 24 hours, listed as C66-HC-006-13-06): 0.17% and 0.15%
- moisture absorption ([4]; judgement in words): no or almost no moisture absorption

Reference: patent US12540112B2, “Crystal form I of curcumin derivative, preparation method therefor and application thereof” (WENZHOU MEDICAL UNIVERSITY, priority 2019, dated 2026)
